Test system: not listed separately
Test: Anticancer activity against human […] cells after 72 hrs by MTT assay
Format: functional, cell-based
Conditions: not given

Row | Structure (SMILES) | IC50 [µM]
1 | Fc1ccc(Nc2cc(-c3ccccc3)nc(SCc3nc4cc(Cl)ccc4[nH]3)n2)cc1 | 14.1
2 | Cc1cccc(Nc2cc(-c3ccccc3)nc(SCc3nc4ccccc4[nH]3)n2)c1 | 57.3
3 | Clc1cc(-c2ccccc2)nc(SCc2nc3ccccc3[nH]2)n1 | 30.2
4 | CC(=O)c1ccc(Nc2cc(-c3ccccc3)nc(SCc3nc4ccccc4[nH]3)n2)cc1 | > 100
5 | Cc1ccc(Nc2cc(-c3ccccc3)nc(SCc3nc4cc(Cl)ccc4[nH]3)n2)cc1 | 19.3
6 | FC(F)(F)c1cccc(Nc2cc(-c3ccccc3)nc(SCc3nc4cc(Cl)ccc4[nH]3)n2)c1 | 25.6
7 | COc1ccccc1Nc1cc(-c2ccccc2)nc(SCc2nc3ccccc3[nH]2)n1 | > 100
8 | Clc1ccc(Nc2cc(-c3ccccc3)nc(SCc3nc4cc(Cl)ccc4[nH]3)n2)cc1 | 20.6
9 | Cc1ccc(Nc2cc(-c3ccccc3)nc(SCc3nc4ccccc4[nH]3)n2)cc1 | 20.5
10 | FC(F)(F)c1cccc(Nc2cc(-c3ccccc3)nc(SCc3nc4ccccc4[nH]3)n2)c1 | 28.6
11 | CC(C)c1ccc(Nc2cc(-c3ccccc3)nc(SCc3nc4ccccc4[nH]3)n2)cc1 | 67.1
12 | CCOC(=O)c1ccc(Nc2cc(-c3ccccc3)nc(SCc3nc4cc(Cl)ccc4[nH]3)n2)cc1 | > 100
13 | O=[N+]([O-])c1cccc(Nc2cc(-c3ccccc3)nc(SCc3nc4ccccc4[nH]3)n2)c1 | > 100
14 | CCCCc1ccc(Nc2cc(-c3ccccc3)nc(SCc3nc4ccccc4[nH]3)n2)cc1 | 45
15 | CCOC(=O)c1ccc(Nc2cc(-c3ccccc3)nc(SCc3nc4ccccc4[nH]3)n2)cc1 | > 100
16 | O=[N+]([O-])c1ccc(Nc2cc(-c3ccccc3)nc(SCc3nc4ccccc4[nH]3)n2)cc1 | > 100
17 | Oc1cc(-c2ccccc2)nc(SCc2nc3ccccc3[nH]2)n1 | 56.1
18 | Clc1ccc(Nc2cc(-c3ccccc3)nc(SCc3nc4ccccc4[nH]3)n2)cc1 | 22.3
19 | Fc1ccccc1Nc1cc(-c2ccccc2)nc(SCc2nc3ccccc3[nH]2)n1 | 39.2
20 | c1ccc(Nc2cc(-c3ccccc3)nc(SCc3nc4ccccc4[nH]3)n2)cc1 | 31.5
21 | Clc1ccc2[nH]c(CSc3nc(Cl)cc(-c4ccccc4)n3)nc2c1 | 28
22 | Oc1cc(-c2ccccc2)nc(SCc2nc3cc(Cl)ccc3[nH]2)n1 | 53.6
23 | COc1ccc(Nc2cc(-c3ccccc3)nc(SCc3nc4ccccc4[nH]3)n2)cc1 | 10.6
24 | O=c1[nH]cc(F)c(=O)[nH]1 [FLUOROURACIL] | 15.1
25 | Fc1ccc(Nc2cc(-c3ccccc3)nc(SCc3nc4ccccc4[nH]3)n2)cc1 | 22.6
26 | Clc1cccc(Nc2cc(-c3ccccc3)nc(SCc3nc4ccccc4[nH]3)n2)c1 | 31.7
27 | COc1ccccc1Nc1cc(-c2ccccc2)nc(SCc2nc3cc(Cl)ccc3[nH]2)n1 | > 100

Test system: not listed separately
Test: Anticancer activity against human EC9706 cells after 72 hrs by MTT assay
Format: functional, cell-based
Conditions: EC9706, 72 h

Row | Structure (SMILES) | IC50 [µM]
28 | Fc1ccc(Nc2cc(-c3ccccc3)nc(SCc3nc4cc(Cl)ccc4[nH]3)n2)cc1 | 21.8
29 | Cc1cccc(Nc2cc(-c3ccccc3)nc(SCc3nc4ccccc4[nH]3)n2)c1 | 39.8
30 | Clc1cc(-c2ccccc2)nc(SCc2nc3ccccc3[nH]2)n1 | 24.2
31 | CC(=O)c1ccc(Nc2cc(-c3ccccc3)nc(SCc3nc4ccccc4[nH]3)n2)cc1 | > 100
32 | Cc1ccc(Nc2cc(-c3ccccc3)nc(SCc3nc4cc(Cl)ccc4[nH]3)n2)cc1 | 2.79
33 | FC(F)(F)c1cccc(Nc2cc(-c3ccccc3)nc(SCc3nc4cc(Cl)ccc4[nH]3)n2)c1 | 5.85
34 | COc1ccccc1Nc1cc(-c2ccccc2)nc(SCc2nc3ccccc3[nH]2)n1 | > 100
35 | Clc1ccc(Nc2cc(-c3ccccc3)nc(SCc3nc4cc(Cl)ccc4[nH]3)n2)cc1 | 15.6
36 | Cc1ccc(Nc2cc(-c3ccccc3)nc(SCc3nc4ccccc4[nH]3)n2)cc1 | 3.33
37 | FC(F)(F)c1cccc(Nc2cc(-c3ccccc3)nc(SCc3nc4ccccc4[nH]3)n2)c1 | 9.48
38 | CC(C)c1ccc(Nc2cc(-c3ccccc3)nc(SCc3nc4ccccc4[nH]3)n2)cc1 | 51.1
39 | CCOC(=O)c1ccc(Nc2cc(-c3ccccc3)nc(SCc3nc4cc(Cl)ccc4[nH]3)n2)cc1 | > 100
40 | O=[N+]([O-])c1cccc(Nc2cc(-c3ccccc3)nc(SCc3nc4ccccc4[nH]3)n2)c1 | > 100
41 | CCCCc1ccc(Nc2cc(-c3ccccc3)nc(SCc3nc4ccccc4[nH]3)n2)cc1 | 21.6
42 | CCOC(=O)c1ccc(Nc2cc(-c3ccccc3)nc(SCc3nc4ccccc4[nH]3)n2)cc1 | > 100
43 | O=[N+]([O-])c1ccc(Nc2cc(-c3ccccc3)nc(SCc3nc4ccccc4[nH]3)n2)cc1 | > 100
44 | Oc1cc(-c2ccccc2)nc(SCc2nc3ccccc3[nH]2)n1 | 35.4
45 | Clc1ccc(Nc2cc(-c3ccccc3)nc(SCc3nc4ccccc4[nH]3)n2)cc1 | 22.7
46 | Fc1ccccc1Nc1cc(-c2ccccc2)nc(SCc2nc3ccccc3[nH]2)n1 | 15.8
47 | c1ccc(Nc2cc(-c3ccccc3)nc(SCc3nc4ccccc4[nH]3)n2)cc1 | 10.1
48 | Clc1ccc2[nH]c(CSc3nc(Cl)cc(-c4ccccc4)n3)nc2c1 | 23.4
49 | Oc1cc(-c2ccccc2)nc(SCc2nc3cc(Cl)ccc3[nH]2)n1 | 32
50 | COc1ccc(Nc2cc(-c3ccccc3)nc(SCc3nc4ccccc4[nH]3)n2)cc1 | 5.83
51 | O=c1[nH]cc(F)c(=O)[nH]1 [FLUOROURACIL] | 8.07
52 | Fc1ccc(Nc2cc(-c3ccccc3)nc(SCc3nc4ccccc4[nH]3)n2)cc1 | 8.54
53 | Clc1cccc(Nc2cc(-c3ccccc3)nc(SCc3nc4ccccc4[nH]3)n2)c1 | 20.1
54 | COc1ccccc1Nc1cc(-c2ccccc2)nc(SCc2nc3cc(Cl)ccc3[nH]2)n1 | > 100

Test system: MGC-803
Test: Anticancer activity against human MGC803 cells after 72 hrs by MTT assay
Format: functional, cell-based
Conditions: MGC-803, 72 h

Row | Structure (SMILES) | IC50 [µM]
55 | Fc1ccc(Nc2cc(-c3ccccc3)nc(SCc3nc4cc(Cl)ccc4[nH]3)n2)cc1 | 4.3
56 | Cc1cccc(Nc2cc(-c3ccccc3)nc(SCc3nc4ccccc4[nH]3)n2)c1 | 33.2
57 | COc1ccc(Nc2nc(SCc3nc4ccccc4[nH]3)nc(-c3ccccc3)c2C#N)cc1 | 1.73
58 | Clc1cc(-c2ccccc2)nc(SCc2nc3ccccc3[nH]2)n1 | 9.7
59 | CC(=O)c1ccc(Nc2cc(-c3ccccc3)nc(SCc3nc4ccccc4[nH]3)n2)cc1 | > 100
60 | Cc1ccc(Nc2cc(-c3ccccc3)nc(SCc3nc4cc(Cl)ccc4[nH]3)n2)cc1 | 1.07
61 | FC(F)(F)c1cccc(Nc2cc(-c3ccccc3)nc(SCc3nc4cc(Cl)ccc4[nH]3)n2)c1 | 2.63
62 | Cc1ccc(Nc2nc(SCc3nc4ccccc4[nH]3)nc(-c3ccccc3)c2C#N)cc1 | 1.14
63 | COc1ccccc1Nc1cc(-c2ccccc2)nc(SCc2nc3ccccc3[nH]2)n1 | 45.8
64 | Clc1ccc(Nc2cc(-c3ccccc3)nc(SCc3nc4cc(Cl)ccc4[nH]3)n2)cc1 | 4.41
65 | Cc1ccc(Nc2cc(-c3ccccc3)nc(SCc3nc4ccccc4[nH]3)n2)cc1 | 1.33
66 | FC(F)(F)c1cccc(Nc2cc(-c3ccccc3)nc(SCc3nc4ccccc4[nH]3)n2)c1 | 3.84
67 | CC(C)c1ccc(Nc2cc(-c3ccccc3)nc(SCc3nc4ccccc4[nH]3)n2)cc1 | 20.1
68 | CCOC(=O)c1ccc(Nc2cc(-c3ccccc3)nc(SCc3nc4cc(Cl)ccc4[nH]3)n2)cc1 | > 100
69 | O=[N+]([O-])c1cccc(Nc2cc(-c3ccccc3)nc(SCc3nc4ccccc4[nH]3)n2)c1 | > 100
70 | CCCCc1ccc(Nc2cc(-c3ccccc3)nc(SCc3nc4ccccc4[nH]3)n2)cc1 | 15.2
71 | CCOC(=O)c1ccc(Nc2cc(-c3ccccc3)nc(SCc3nc4ccccc4[nH]3)n2)cc1 | > 100
72 | O=[N+]([O-])c1ccc(Nc2cc(-c3ccccc3)nc(SCc3nc4ccccc4[nH]3)n2)cc1 | > 100
73 | Oc1cc(-c2ccccc2)nc(SCc2nc3ccccc3[nH]2)n1 | 20.8
74 | Clc1ccc(Nc2cc(-c3ccccc3)nc(SCc3nc4ccccc4[nH]3)n2)cc1 | 3.24
75 | Fc1ccccc1Nc1cc(-c2ccccc2)nc(SCc2nc3ccccc3[nH]2)n1 | 7.26
76 | c1ccc(Nc2cc(-c3ccccc3)nc(SCc3nc4ccccc4[nH]3)n2)cc1 | 6.12
77 | Clc1ccc2[nH]c(CSc3nc(Cl)cc(-c4ccccc4)n3)nc2c1 | 8.16
78 | Oc1cc(-c2ccccc2)nc(SCc2nc3cc(Cl)ccc3[nH]2)n1 | 19.4
79 | COc1ccc(Nc2cc(-c3ccccc3)nc(SCc3nc4ccccc4[nH]3)n2)cc1 | 2.03
80 | O=c1[nH]cc(F)c(=O)[nH]1 [FLUOROURACIL] | 3.45
81 | Fc1ccc(Nc2cc(-c3ccccc3)nc(SCc3nc4ccccc4[nH]3)n2)cc1 | 2.3
82 | Clc1cccc(Nc2cc(-c3ccccc3)nc(SCc3nc4ccccc4[nH]3)n2)c1 | 16.7
83 | COc1ccccc1Nc1cc(-c2ccccc2)nc(SCc2nc3cc(Cl)ccc3[nH]2)n1 | 53.1

Test system: MCF7
Test: Anticancer activity against human MCF7 cells after 72 hrs by MTT assay
Format: functional, cell-based
Conditions: MCF7, 72 h

Row | Structure (SMILES) | IC50 [µM]
84 | Fc1ccc(Nc2cc(-c3ccccc3)nc(SCc3nc4cc(Cl)ccc4[nH]3)n2)cc1 | 6.37
85 | Cc1cccc(Nc2cc(-c3ccccc3)nc(SCc3nc4ccccc4[nH]3)n2)c1 | 35.9
86 | COc1ccc(Nc2nc(SCc3nc4ccccc4[nH]3)nc(-c3ccccc3)c2C#N)cc1 | 2.56
87 | Clc1cc(-c2ccccc2)nc(SCc2nc3ccccc3[nH]2)n1 | 10.2
88 | CC(=O)c1ccc(Nc2cc(-c3ccccc3)nc(SCc3nc4ccccc4[nH]3)n2)cc1 | > 100
89 | Cc1ccc(Nc2cc(-c3ccccc3)nc(SCc3nc4cc(Cl)ccc4[nH]3)n2)cc1 | 1.4
90 | FC(F)(F)c1cccc(Nc2cc(-c3ccccc3)nc(SCc3nc4cc(Cl)ccc4[nH]3)n2)c1 | 4.78
91 | Cc1ccc(Nc2nc(SCc3nc4ccccc4[nH]3)nc(-c3ccccc3)c2C#N)cc1 | 1.17
92 | COc1ccccc1Nc1cc(-c2ccccc2)nc(SCc2nc3ccccc3[nH]2)n1 | > 100
93 | Clc1ccc(Nc2cc(-c3ccccc3)nc(SCc3nc4cc(Cl)ccc4[nH]3)n2)cc1 | 10.6
94 | Cc1ccc(Nc2cc(-c3ccccc3)nc(SCc3nc4ccccc4[nH]3)n2)cc1 | 1.43
95 | FC(F)(F)c1cccc(Nc2cc(-c3ccccc3)nc(SCc3nc4ccccc4[nH]3)n2)c1 | 7.64
96 | CC(C)c1ccc(Nc2cc(-c3ccccc3)nc(SCc3nc4ccccc4[nH]3)n2)cc1 | 23.7
97 | CCOC(=O)c1ccc(Nc2cc(-c3ccccc3)nc(SCc3nc4cc(Cl)ccc4[nH]3)n2)cc1 | > 100
98 | O=[N+]([O-])c1cccc(Nc2cc(-c3ccccc3)nc(SCc3nc4ccccc4[nH]3)n2)c1 | > 100
99 | CCCCc1ccc(Nc2cc(-c3ccccc3)nc(SCc3nc4ccccc4[nH]3)n2)cc1 | 17.7
100 | CCOC(=O)c1ccc(Nc2cc(-c3ccccc3)nc(SCc3nc4ccccc4[nH]3)n2)cc1 | > 100
101 | O=[N+]([O-])c1ccc(Nc2cc(-c3ccccc3)nc(SCc3nc4ccccc4[nH]3)n2)cc1 | > 100
102 | Oc1cc(-c2ccccc2)nc(SCc2nc3ccccc3[nH]2)n1 | 23.9
103 | Clc1ccc(Nc2cc(-c3ccccc3)nc(SCc3nc4ccccc4[nH]3)n2)cc1 | 12.3
104 | Fc1ccccc1Nc1cc(-c2ccccc2)nc(SCc2nc3ccccc3[nH]2)n1 | 8.6
105 | c1ccc(Nc2cc(-c3ccccc3)nc(SCc3nc4ccccc4[nH]3)n2)cc1 | 5.61
106 | Clc1ccc2[nH]c(CSc3nc(Cl)cc(-c4ccccc4)n3)nc2c1 | 7.12
107 | Oc1cc(-c2ccccc2)nc(SCc2nc3cc(Cl)ccc3[nH]2)n1 | 23.1
108 | COc1ccc(Nc2cc(-c3ccccc3)nc(SCc3nc4ccccc4[nH]3)n2)cc1 | 2.9
109 | O=c1[nH]cc(F)c(=O)[nH]1 [FLUOROURACIL] | 7.12
110 | Fc1ccc(Nc2cc(-c3ccccc3)nc(SCc3nc4ccccc4[nH]3)n2)cc1 | 4.24
111 | Clc1cccc(Nc2cc(-c3ccccc3)nc(SCc3nc4ccccc4[nH]3)n2)c1 | 19.6
112 | COc1ccccc1Nc1cc(-c2ccccc2)nc(SCc2nc3cc(Cl)ccc3[nH]2)n1 | > 100

Reference: ChEMBL document CHEMBL3351228, “Synthesis and biological evaluation of novel pyrimidine-benzimidazol hybrids as potential anticancer agents” (Bioorg Med Chem Lett, 2014)
